Measurements: ChEMBL document CHEMBL1201862, “PubChem BioAssay data set” (2004)
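These data come from cells grown in 96-well plates and exposed to compound for 48 hours at five concentrations. At the GI50, growth is halved.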 The source made the active and inactive calls. No stated cut-off is given here; in the data, active = GI50 up to about 1.1 µM and inactive = higher.

Assays:
Test in all cases: NCI anticancer screen, dose series, 48 h
A498 = tested on: A498
A549 = tested on: A549
BT-549 = tested on: BT-549
CAKI-1 = tested on: CAKI-1
COLO 205 = tested on: COLO 205
EKVX = tested on: EKVX
HCT-116 = tested on: HCT-116
HCT-15 = tested on: HCT-15
HOP-62 = tested on: HOP-62
IGROV-1 = tested on: IGROV-1
LOX IMVI = tested on: LOX IMVI
NCI-H23 = tested on: NCI-H23
NCI-H522 = tested on: NCI-H522
OVCAR-8 = tested on: OVCAR-8
SN12C = tested on: SN12C
SNB-19 = tested on: SNB-19
SR = tested on: SR
SW-620 = tested on: SW-620
T47D = tested on: T47D
M19-MEL = tested on: M19-MEL

COc1ccc(C2=C(N)c3cc(OC)ccc3C2=O)cc1
GI50 (A498): > 100 µM (inactive) | GI50 (A549): > 100 µM (inactive) | GI50 (BT-549): > 100 µM (inactive) | GI50 (CAKI-1): > 100 µM (inactive) | GI50 (COLO 205): > 100 µM (inactive) | GI50 (EKVX): > 100 µM (inactive) | GI50 (HCT-116): > 100 µM (inactive) | GI50 (HCT-15): > 100 µM | GI50 (HOP-62): > 100 µM (inactive) | GI50 (IGROV-1): > 100 µM (inactive) | GI50 (LOX IMVI): > 100 µM (inactive) | GI50 (NCI-H23): 55.7 µM (inactive) | GI50 (NCI-H522): > 100 µM (inactive) | GI50 (OVCAR-8): > 100 µM (inactive) | GI50 (SN12C): > 100 µM (inactive) | GI50 (SNB-19): 24.5 µM (inactive) | GI50 (SR): 23.8 µM (inactive) | GI50 (SW-620): > 100 µM (inactive) | GI50 (T47D): 36.7 µM (inactive)

Nc1cc2c3c(cccc3c1)C(=O)N(c1ccc(OCCN3CCCCC3)cc1)C2=O
GI50 (A498): 16 µM (inactive) | GI50 (A549): 13.9 µM (inactive) | GI50 (BT-549): 19.7 µM (inactive) | GI50 (CAKI-1): 17.8 µM (inactive) | GI50 (COLO 205): 13.4 µM (inactive) | GI50 (EKVX): 20.4 µM (inactive) | GI50 (HCT-116): 11.3 µM (inactive) | GI50 (HCT-15): 12.7 µM | GI50 (HOP-62): 15.8 µM (inactive) | GI50 (IGROV-1): 17.6 µM (inactive) | GI50 (LOX IMVI): 14 µM (inactive) | GI50 (NCI-H23): 16.1 µM (inactive) | GI50 (NCI-H522): 18.5 µM (inactive) | GI50 (OVCAR-8): 16.1 µM (inactive) | GI50 (SN12C): 15.9 µM (inactive) | GI50 (SNB-19): 18.3 µM (inactive) | GI50 (SR): 14 µM (inactive) | GI50 (SW-620): 20.6 µM (inactive) | GI50 (T47D): 20.4 µM (inactive)

COc1cc(C(=O)CBr)c(OC)cc1C
GI50 (A498): 84.7 µM (inactive) | GI50 (A549): > 100 µM (inactive) | GI50 (BT-549): 36.2 µM (inactive) | GI50 (CAKI-1): > 100 µM (inactive) | GI50 (COLO 205): > 100 µM (inactive) | GI50 (EKVX): > 100 µM (inactive) | GI50 (HCT-116): > 100 µM (inactive) | GI50 (HCT-15): > 100 µM | GI50 (HOP-62): > 100 µM (inactive) | GI50 (IGROV-1): > 100 µM (inactive) | GI50 (LOX IMVI): > 100 µM (inactive) | GI50 (NCI-H23): > 100 µM (inactive) | GI50 (NCI-H522): > 100 µM (inactive) | GI50 (OVCAR-8): > 100 µM (inactive) | GI50 (SN12C): > 100 µM (inactive) | GI50 (SNB-19): > 100 µM (inactive) | GI50 (SR): > 100 µM (inactive) | GI50 (SW-620): > 100 µM (inactive) | GI50 (T47D): > 100 µM (inactive)

CCOC(=O)c1sc2nc(SC)nc3c2c1NCN3c1ccc2c(c1)OCO2
GI50 (A498): 33.3 µM (inactive) | GI50 (A549): 7.83 µM (inactive) | GI50 (BT-549): 30.1 µM (inactive) | GI50 (CAKI-1): 58.1 µM (inactive) | GI50 (COLO 205): 35.2 µM (inactive) | GI50 (EKVX): 42.2 µM (inactive) | GI50 (HCT-116): 27.5 µM (inactive) | GI50 (HCT-15): 52.5 µM | GI50 (HOP-62): 5.93 µM (inactive) | GI50 (IGROV-1): 26.1 µM (inactive) | GI50 (LOX IMVI): 23.8 µM (inactive) | GI50 (NCI-H23): 41.9 µM (inactive) | GI50 (NCI-H522): 31.1 µM (inactive) | GI50 (OVCAR-8): 5.41 µM (inactive) | GI50 (SN12C): 39.4 µM (inactive) | GI50 (SNB-19): 11.4 µM (inactive) | GI50 (SR): 39.3 µM (inactive) | GI50 (SW-620): 17.2 µM (inactive) | GI50 (T47D): 18.9 µM (inactive)

COc1ccc(C(=O)/C=C2\C(=O)Nc3ccc(Br)cc32)cc1
GI50 (A498): 17.9 µM (inactive) | GI50 (A549): 15.3 µM (inactive) | GI50 (BT-549): 5.75 µM (inactive) | GI50 (CAKI-1): 8.63 µM (inactive) | GI50 (COLO 205): 2.3 µM (inactive) | GI50 (EKVX): 13.6 µM (inactive) | GI50 (HCT-116): 4.05 µM (inactive) | GI50 (HCT-15): 2.13 µM | GI50 (HOP-62): 10.4 µM (inactive) | GI50 (IGROV-1): 2.84 µM (inactive) | GI50 (LOX IMVI): 1.99 µM (inactive) | GI50 (NCI-H23): 4.27 µM (inactive) | GI50 (NCI-H522): 4.03 µM (inactive) | GI50 (OVCAR-8): 2.07 µM (inactive) | GI50 (SN12C): 2.88 µM (inactive) | GI50 (SNB-19): 16.7 µM (inactive) | GI50 (SR): 2.96 µM (inactive) | GI50 (SW-620): 2.32 µM (inactive) | GI50 (T47D): 11.5 µM (inactive)

CC(C)=CCC/C(C)=C/CC/C(C)=C/CCC1(C)CCC([C@H](C)C(=O)O)OO1.CC1=C(CC/C(C)=C/CCC2(C)CCC([C@H](C)C(=O)O)OO2)C(C)(C)CCC1 (some centres not stated)
GI50 (A549): > 100 µM (inactive) | GI50 (CAKI-1): > 100 µM (inactive) | GI50 (COLO 205): > 100 µM (inactive) | GI50 (EKVX): > 100 µM (inactive) | GI50 (HCT-116): > 100 µM (inactive) | GI50 (HOP-62): > 100 µM (inactive) | GI50 (LOX IMVI): > 100 µM (inactive) | GI50 (M19-MEL): > 100 µM (inactive) | GI50 (NCI-H23): > 100 µM (inactive) | GI50 (NCI-H522): > 100 µM (inactive) | GI50 (OVCAR-8): > 100 µM (inactive) | GI50 (SN12C): > 100 µM (inactive) | GI50 (SNB-19): > 100 µM (inactive) | GI50 (SW-620): > 100 µM (inactive)

COc1cc2c3c4c1OCc1c5c(cc(c1-4)CC3[N+](C)(C)CC2)OCO5 (configuration not stated)
GI50 (A498): > 100 µM (inactive) | GI50 (A549): > 100 µM (inactive) | GI50 (BT-549): 2.83 µM (inactive) | GI50 (CAKI-1): > 100 µM (inactive) | GI50 (COLO 205): > 100 µM (inactive) | GI50 (EKVX): > 100 µM (inactive) | GI50 (HCT-116): > 100 µM (inactive) | GI50 (HCT-15): > 100 µM | GI50 (HOP-62): 31.1 µM (inactive) | GI50 (IGROV-1): > 100 µM (inactive) | GI50 (LOX IMVI): > 100 µM (inactive) | GI50 (NCI-H23): 54.8 µM (inactive) | GI50 (NCI-H522): 27.1 µM (inactive) | GI50 (OVCAR-8): > 72.9 µM (inactive) | GI50 (SN12C): 3.21 µM (inactive) | GI50 (SNB-19): 4.33 µM (inactive) | GI50 (SR): 49.8 µM (inactive) | GI50 (SW-620): > 100 µM (inactive) | GI50 (T47D): > 100 µM (inactive)

Cc1ccccc1OC(C)C(=O)NN1C(=O)CC(=O)N(c2ccc(Cl)cc2)C1=S (configuration not stated)
GI50 (A498): 20.7 µM (inactive) | GI50 (A549): 43.9 µM (inactive) | GI50 (BT-549): 37.2 µM (inactive) | GI50 (CAKI-1): 37.8 µM (inactive) | GI50 (COLO 205): 23.3 µM (inactive) | GI50 (EKVX): 41.7 µM (inactive) | GI50 (HCT-116): 22.2 µM (inactive) | GI50 (HCT-15): 30.1 µM | GI50 (HOP-62): 47.9 µM (inactive) | GI50 (IGROV-1): 49.9 µM (inactive) | GI50 (LOX IMVI): 29 µM (inactive) | GI50 (NCI-H23): 31 µM (inactive) | GI50 (NCI-H522): 32.3 µM (inactive) | GI50 (OVCAR-8): 34.1 µM (inactive) | GI50 (SN12C): 34.3 µM (inactive) | GI50 (SNB-19): 61.1 µM (inactive) | GI50 (SR): 26 µM (inactive) | GI50 (SW-620): 36.2 µM (inactive) | GI50 (T47D): 34.6 µM (inactive)
